Assay results published in patent US8815880B2, “Crystal of tricyclic pyrazolopyrimidine derivative” (Daiichi Sankyo Company, Limited, priority 2010, dated 2014).

Legend:
[1] = system: human lung cancer cell line NCI-H460; test: Cell growth inhibition assay (MTT), NCI-H460; type: cell-based; conditions: NCI-H460 cells, 72 hours, read-out: GI50 value (50% growth inhibitory concentration)
Description: (§1) A cell growth inhibition assay was performed using two types of cells (human breast cancer cell line SK-BR-3 and human lung cancer cell line NCI-H460).
(§2) Cells of each type were suspended in a medium and seeded into a 96-well multi-well plate at 2000 cells/150 μL/well in the case of SK-BR-3 and at 500 cells/150 μL/well in the case of NCI-H460. Compound (1) was dissolved in DMSO, and this was diluted with medium to prepare a sample solution (DMSO concentration: 0.5% or less). On the day following the seeding, 50 μL of DMSO-containing medium to which the test compound was not added (hereinafter called DMSO diluted solution; DMSO concentration: 0.5% or less) or 50 μL of the sample solution was further added to the cells. An MTT assay was performed immediately after and 72 hours after adding the sample solution or the DMSO diluted solution to the cells. The MTT assay was performed as follows.
(§3) 5 mg/mL of an MTT (3-(4,5-dimethylthiazol-2-yl)-2,5-diphenyltetrazolium bromide) solution was added at 20 μL per well. Thereafter, the plate was incubated at 37° C. in 5% CO2 for four hours. The plate was centrifuged at 1200 rpm for five minutes, and then the culture supernatant was removed by suction using a dispenser. DMSO was added at 150 μL per well, and the generated formazan was dissolved. […] The absorbance of each well was measured using a plate reader at an OD of 540 nm with a reference of 660 nm. […]

[2] = system: human breast cancer cell line SK-BR-3; test: Cell growth inhibition assay (MTT), SK-BR-3; type: cell-based; conditions: SK-BR-3 cells, 72 hours, read-out: GI50 value (50% growth inhibitory concentration)
Description: as §1, §2, §3

[3] = Purity test and stability test (accelerated test, HPLC related substances); type: physicochemical; conditions: monohydrochloride
Description: Purity Test and Stability Test
• Condition 1: 40° C., humidity: 75% • Condition 2: 60° C. (without humidity control)
Samples under the aforementioned accelerated test conditions were measured by high performance liquid chromatography as described below.
An analyte for the accelerated test was dissolved in the sample-dissolved solution to prepare an approximately 0.5 g/L solution.
• Column: YMC-Pack Pro C18RS, 3.0 mm ID×150 mm, particle diameter: 3 μm • Column temperature: approximately 40° C. • Gradient conditions:
45 to 55 minutes, mobile phase A: 0/mobile phase B: 100 • Flow rate: 0.7 ml/min • Measurement range: 0 to 55 minutes • Detection wavelength: 240 nm • Amount of sample solution injected: 5 μl <Calculation> • 1) The sample solution was injected into the column, so as to obtain the peak area (A) of each related substance and the peak area (T) of compound (1). • 2) The sample-dissolved solution was injected into the column, so as to obtain the peak area (B) of each blank. • 3) The amount [%] of each related substance was calculated using the formula: The amount [%] of each related substance=100×(A−B)÷T <Measurement Results>

[4] = Accelerated condition 1: 40° C., humidity 75%, 2 weeks
[5] = Accelerated condition 1: 40° C., humidity 75%, 4 weeks
[6] = Accelerated condition 2: 60° C. (without humidity control), 2 weeks
[7] = Accelerated condition 2: 60° C. (without humidity control), 4 weeks
[8] = Purity test (Initial), before accelerated test

GI50 [1]	GI50 [2]	Impurity (rrt 0.43) amount [3, 4]	Impurity: Total of unspecified [3, 4]	Impurity (rrt 0.43) amount [3, 5]	Impurity: Total of unspecified [3, 5]	Impurity (rrt 0.43) amount [3, 6]	Impurity: Total of unspecified [3, 6]	Impurity (rrt 0.43) amount [3, 7]	Impurity: Total of unspecified [3, 7]	Impurity (rrt 0.43) amount [3, 8]	Impurity: Total of unspecified [3, 8]	Structure (SMILES)
26 nM	13 nM	–	–	–	–	–	–	–	–	–	–	CNC(=O)CC1=Cc2nn(Cc3ncc(C)c(OC)c3Cl)c3nc(N)nc(c23)SC1 [Compound (1), 2-{4-amino-2-[(3-chloro-4-methoxy-5-methylpyridin-2-yl)methyl]-2,7-dihydro-6-thia-1,2,3,5-tetraazabenzo[cd]azulen-8-yl}-N-methylacetamide]
–	–	0.94%	1.83%	1.04%	2.08%	1.09%	2.31%	1.21%	2.42%	0.75%	1.64%	CNC(=O)CC1=Cc2nn(Cc3ncc(C)c(OC)c3Cl)c3nc(N)nc(c23)SC1.Cl [Example 4, 2-{4-Amino-2-[(3-chloro-4-methoxy-5-methylpyridin-2-yl)methyl]-2,7-dihydro-6-thia-1,2,3,5-tetraazabenzo[cd]azulen-8-yl}-N-methylacetamide monohydrochloride]
–	–	0.30%	1.08%	0.33%	1.09%	0.32%	1.20%	0.33%	1.20%	0.27%	1.00%	CNC(=O)CC1=Cc2nn(Cc3ncc(C)c(OC)c3Cl)c3nc(N)nc(c23)SC1.Cl [Example 12, 2-{4-Amino-2-[(3-chloro-4-methoxy-5-methylpyridin-2-yl)methyl]-2,7-dihydro-6-thia-1,2,3,5-tetraazabenzo[cd]azulen-8-yl}-N-methylacetamide monohydrochloride]
–	–	0.41%	1.14%	0.44%	1.12%	0.44%	1.25%	0.45%	1.18%	0.37%	1.07%	CNC(=O)CC1=Cc2nn(Cc3ncc(C)c(OC)c3Cl)c3nc(N)nc(c23)SC1.Cl [Example 28, 2-{4-Amino-2-[(3-chloro-4-methoxy-5-methylpyridin-2-yl)methyl]-2,7-dihydro-6-thia-1,2,3,5-tetraazabenzo[cd]azulen-8-yl}-N-methylacetamide monohydrochloride]
